These results are taken from patent US12521393B2, “Cytotoxicity targeting chimeras for CCR2-expressing cells” (GLAXOSMITHKLINE INTELLECTUAL PROPERTY DEVELOPMENT LIMITED, priority 2021, dated 2026).

Molecules are shown by their SMILES.

The subject of test [1] is CCR2 expressing cells (CD11b+Ly6c+Hi) in peripheral blood. Briefly: In vivo depletion assay, flow cytometry of peripheral blood (Example 201). The note with it: hCCR2 knock-in mice, IV 0.1 mpk compound + 10 mpk anti-cotinine antibody (SEQ ID NO: 13/14), peripheral blood at 48 hr. More on the design: species or system human CCR2 knock-in mice (C57 background). An outline of the steps:
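Flow cytometry of blood collected at study termination quantified percent depletion of CD11b+Ly6c+Hi cells and CCR2 expression, using surface markers CD45, CD3, CD11b, Ly6C, human CCR2 after Fc block, with 7AAD viability stain. Compound given in saline:DMSO:PBS formulation, optionally combined with anti-cotinine antibody, incubated 30 min before administration.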

The target in test [2] is human alpha1 nicotinic acetylcholine (nACh) receptor (Homo sapiens, UniProt P02708). Briefly: Nicotinic acetylcholine receptor antagonism assay, IONFlux automated patch clamp (Example 203). It counts as cell-based. The conditions noted are these: for IC50: antagonism of ACh-stimulated human alpha1 nAChR current, patch clamp; for Emax at 10 µM: maximum percentage antagonism at maximum concentration tested 10 μM; for Emax at 100 µM: maximum percentage antagonism at maximum concentration tested 100 μM. The procedure, abridged:
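Cells expressing human α1 nAChR were incubated with a compound dose response (top 10 μM or 100 μM), then stimulated with ACh (10 mM), and peak current was read by automated patch clamp. % inhibition was taken against ACh-alone control, corrected for vehicle and run-down, and fit non-linearly for IC50; runs were averaged.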

Sequence of human alpha1 nicotinic acetylcholine (nACh) receptor (P02708 21-457): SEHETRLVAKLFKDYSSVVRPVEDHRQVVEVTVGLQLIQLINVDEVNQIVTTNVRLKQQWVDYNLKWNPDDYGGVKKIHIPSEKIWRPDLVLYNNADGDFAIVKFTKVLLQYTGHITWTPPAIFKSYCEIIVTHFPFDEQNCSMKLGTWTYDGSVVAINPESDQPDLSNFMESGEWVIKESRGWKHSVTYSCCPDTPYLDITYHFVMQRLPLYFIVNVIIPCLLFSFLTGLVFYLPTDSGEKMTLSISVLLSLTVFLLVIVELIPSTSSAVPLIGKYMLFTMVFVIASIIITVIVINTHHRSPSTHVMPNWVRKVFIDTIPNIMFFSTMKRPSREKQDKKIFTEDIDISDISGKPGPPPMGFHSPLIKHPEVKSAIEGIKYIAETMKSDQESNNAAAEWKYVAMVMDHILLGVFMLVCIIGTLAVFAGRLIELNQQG
Sequence of human alpha1 nicotinic acetylcholine (nACh) receptor (P11230 24-501 partner): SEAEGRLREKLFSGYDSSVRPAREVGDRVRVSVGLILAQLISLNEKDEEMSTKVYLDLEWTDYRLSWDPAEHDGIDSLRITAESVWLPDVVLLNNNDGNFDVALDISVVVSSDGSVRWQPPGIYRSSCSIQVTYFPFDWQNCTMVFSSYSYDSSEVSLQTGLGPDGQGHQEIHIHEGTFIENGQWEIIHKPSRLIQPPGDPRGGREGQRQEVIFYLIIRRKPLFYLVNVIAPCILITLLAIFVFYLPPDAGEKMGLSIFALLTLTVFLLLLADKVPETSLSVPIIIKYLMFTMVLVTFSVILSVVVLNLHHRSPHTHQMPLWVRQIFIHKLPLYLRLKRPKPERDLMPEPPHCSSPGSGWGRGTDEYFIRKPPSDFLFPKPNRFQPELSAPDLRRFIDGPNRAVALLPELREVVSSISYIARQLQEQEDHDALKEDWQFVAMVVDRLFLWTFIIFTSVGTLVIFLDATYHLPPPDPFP
Sequence of human alpha1 nicotinic acetylcholine (nACh) receptor (Q07001 22-517 partner): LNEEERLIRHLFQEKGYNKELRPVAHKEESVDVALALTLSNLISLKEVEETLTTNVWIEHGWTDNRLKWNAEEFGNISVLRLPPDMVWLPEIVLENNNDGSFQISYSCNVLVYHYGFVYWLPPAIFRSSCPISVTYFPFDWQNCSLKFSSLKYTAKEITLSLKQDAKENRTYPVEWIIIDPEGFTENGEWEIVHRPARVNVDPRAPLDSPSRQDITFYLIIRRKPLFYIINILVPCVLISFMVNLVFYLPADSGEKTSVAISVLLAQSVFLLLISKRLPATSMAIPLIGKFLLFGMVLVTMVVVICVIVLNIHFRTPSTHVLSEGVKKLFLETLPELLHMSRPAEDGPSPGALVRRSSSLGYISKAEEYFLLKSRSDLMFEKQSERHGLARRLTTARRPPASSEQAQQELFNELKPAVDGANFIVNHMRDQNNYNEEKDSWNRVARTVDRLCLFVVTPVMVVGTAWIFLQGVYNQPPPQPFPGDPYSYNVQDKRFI

For `CC(C)N(C)[C@@H]1CC[C@H](N2CC[C@H](Nc3ncnc4ccc(C(F)(F)F)cc34)C2=O)[C@H](NC(=O)[C@H]2CC[C@H](NC(=O)CCOC[C@H]3CC[C@H](COCCNC(=O)[C@H]4CC(=O)N(C)[C@@H]4c4cccnc4)CC3)CC2)C1` [Example 53, (2S,3S)-N-(2-(((1R,4S)-4-((3-(((1R,4R)-4-(((1R,2S,5R)-5-(Isopropyl(methyl)amino)-2-((S)-2-oxo-3-((6-(trifluoromethyl)quinazolin-4-yl)amino)pyrrolidin-1-yl)cyclohexyl)carbamoyl)cyclohexyl)amino)-3-oxopropoxy)methyl)cyclohexyl)methoxy)ethyl)-1-methyl-5-oxo-2-(pyridin-3-yl)pyrrolidine-3-carboxamide], the “% Depletion of CCR2 expressing cells” value in test [1] is 68.42%. The compound further came in with an IC50 in test [2] of at least 11.1 µM. The Emax at 11.11 µM in test [2] (maximum percentage antagonism at maximum concentration tested 11.11 μM, read-out: Maximum Response) was 10%.

For `CC(C)N(C)[C@@H]1CC[C@H](N2CC[C@H](Nc3ncnc4ccc(C(F)(F)F)cc34)C2=O)[C@H](NC(=O)[C@H]2CC[C@H](NC(=O)CCOCCOCCOCCNC(=O)[C@H]3CC(=O)N(C)[C@@H]3c3cccnc3)CC2)C1` [Example 30, (2S,3S)-N-(2-(2-(2-(3-(((1R,4r)-4-(((1R,2S,5R)-5-(Isopropyl(methyl)amino)-2-((S)-2-oxo-3-((6-(trifluoromethyl)quinazolin-4-yl)amino)pyrrolidin-1-yl)cyclohexyl)carbamoyl)cyclohexyl)amino)-3-oxopropoxy)ethoxy)ethoxy)ethyl)-1-methyl-5-oxo-2-(pyridin-3-yl)pyrrolidine-3-carboxamide], the “% Depletion of CCR2 expressing cells” value in test [1] is 34.88%. Moreover, the IC50 in test [2] is at least 10 µM. Also, the Emax at 10 µM in test [2] (read-out: Maximum Response) was 5.4%.

Turning to `CC(C)N(C)[C@@H]1CC[C@H](N2CC[C@H](Nc3ncnc4ccc(C(F)(F)F)cc34)C2=O)[C@H](NC(=O)CCCN2CCC3(CCN(CCCNC(=O)[C@H]4CC(=O)N(C)[C@@H]4c4cccnc4)CC3)CC2)C1` [Example 191, (2S,3S)-N-(3-(9-(4-(((1R,2S,5R)-5-(Isopropyl(methyl)amino)-2-((S)-2-oxo-3-((6-(trifluoromethyl)quinazolin-4-yl)amino)pyrrolidin-1-yl)cyclohexyl)amino)-4-oxobutyl)-3,9-diazaspiro[5.5]undecan-3-yl)propyl)-1-methyl-5-oxo-2-(pyridin-3-yl)pyrrolidine-3-carboxamide], in test [1], the “% Depletion of CCR2 expressing cells” value stood at 69%. Besides, the IC50 in test [2] came out at 2.95 µM. Further, the Emax at 10 µM in test [2] (read-out: Maximum Response) came out at 74%.

Turning to `CC(C)N(C)[C@@H]1CC[C@H](N2CC[C@H](Nc3ncnc4ccc(C(F)(F)F)cc34)C2=O)[C@H](NC(=O)[C@H]2CC[C@@H](CC(=O)CCCOC[C@H]3CC[C@H](COCCNC(=O)[C@H]4CC(=O)N(C)[C@@H]4c4cccnc4)CC3)CC2)C1` [Example 60, (2S,3S)-N-(2-(((1R,4S)-4-(((5-((1S,4S)-4-(((1R,2S,5R)-5-(Isopropyl(methyl)amino)-2-((S)-2-oxo-3-((6-(trifluoromethyl)quinazolin-4-yl)amino)pyrrolidin-1-yl)cyclohexyl)carbamoyl)cyclohexyl)-4-oxopentyl)oxy)methyl)cyclohexyl)methoxy)ethyl)-1-methyl-5-oxo-2-(pyridin-3-yl)pyrrolidine-3-carboxamide], in test [1], the “% Depletion of CCR2 expressing cells” value amounted to 90%. The compound also registered an IC50 in test [2] of at least 10 µM. Moreover, the Emax at 10 µM in test [2] (read-out: Maximum Response) turned out to be 18.2%.

Consider `CC(C)N(C)[C@@H]1CC[C@H](N2CC[C@H](Nc3ncnc4ccc(C(F)(F)F)cc34)C2=O)[C@H](NC(=O)[C@H]2C[C@@H](NC(=O)CCOCCOCCNC(=O)CCNC(=O)[C@H]3CC(=O)N(C)[C@@H]3c3cccnc3)C2)C1` [Example 49, (2S,3S)-N-(3-((2-(2-(3-(((1S,3s)-3-(((1R,2S,5R)-5-(Isopropyl(methyl)amino)-2-((S)-2-oxo-3-((6-(trifluoromethyl)quinazolin-4-yl)amino)pyrrolidin-1-yl)cyclohexyl)carbamoyl)cyclobutyl)amino)-3-oxopropoxy)ethoxy)ethyl)amino)-3-oxopropyl)-1-methyl-5-oxo-2-(pyridin-3-yl)pyrrolidine-3-carboxamide], for which the “% Depletion of CCR2 expressing cells” value in test [1] is on record as 85.84%. The compound further gave an IC50 in test [2] of 80.3 µM. In test [2] (read-out: Maximum Response), the Emax at 100 µM was determined as 56.7%.

For `CN1C(=O)C[C@H](C(=O)NCCO[C@H]2CC[C@H](OCCCC(=O)N[C@H]3CC[C@H](C(=O)N[C@@H]4C[C@H](NC(C)(C)C)CC[C@@H]4N4CC[C@H](Nc5ncnc6ccc(C(F)(F)F)cc56)C4=O)CC3)CC2)[C@H]1c1cccnc1` [Example 10, (2S,3S)-N-(2-(((1R,4S)-4-(4-(((1R,4R)-4-(((1R,2S,5R)-5-(tert-Butylamino)-2-((S)-2-oxo-3-((6-(trifluoromethyl)quinazolin-4-yl)amino)pyrrolidin-1-yl)cyclohexyl)carbamoyl)cyclohexyl)amino)-4-oxobutoxy)cyclohexyl)oxy)ethyl)-1-methyl-5-oxo-2-(pyridin-3-yl)pyrrolidine-3-carboxamide], the “% Depletion of CCR2 expressing cells” value in test [1] was 94.9%. Besides, in test [2], the IC50 is at least 33.3 µM. Further, in test [2] (maximum percentage antagonism at maximum concentration tested 33.33 μM, read-out: Maximum Response), the Emax at 33.33 µM is 48%.

As for `CC(C)N(C)[C@@H]1CC[C@H](N2CC[C@H](Nc3ncnc4ccc(C(F)(F)F)cc34)C2=O)[C@H](NC(=O)[C@H]2CC[C@H](NC(=O)CCCO[C@H]3CC[C@H](OCCNC(=O)[C@H]4CC(=O)N(C)[C@@H]4c4cccnc4)CC3)CC2)C1` [Example 1, (2S,3S)-N-(2-(((1R,4S)-4-(4-(((1R,4R)-4-(((1R,2S,5R)-5-(Isopropyl(methyl)amino)-2-((S)-2-oxo-3-((6-(trifluoromethyl)quinazolin-4-yl)amino)pyrrolidin-1-yl)cyclohexyl)carbamoyl)cyclohexyl)amino)-4-oxobutoxy)cyclohexyl)oxy)ethyl)-1-methyl-5-oxo-2-(pyridin-3-yl)pyrrolidine-3-carboxamide], the “% Depletion of CCR2 expressing cells” value in test [1] was found to be 88.5%. This compound displayed an IC50 in test [2] of 84.6 µM. Further, the Emax at 100 µM in test [2] (read-out: Maximum Response) is 25.6%.

Regarding `CC(C)N(C)[C@@H]1CC[C@H](N2CC[C@H](Nc3ncnc4ccc(C(F)(F)F)cc34)C2=O)[C@H](NC(=O)CCNC(=O)CCCOC[C@H]2CC[C@@H](COCCNC(=O)[C@H]3CC(=O)N(C)[C@@H]3c3cccnc3)CC2)C1` [Example 62, (2S,3S)-N-(2-(((1S,4R)-4-((4-((3-(((1R,2S,5R)-5-(Isopropyl(methyl)amino)-2-((S)-2-oxo-3-((6-(trifluoromethyl)quinazolin-4-yl)amino)pyrrrolidin-1-yl)cyclohexyl)amino)-3-oxopropyl)amino)-4-oxobutoxy)methyl)cyclohexyl)methoxy)ethyl)-1-methyl-5-oxo-2-(pyridin-3-yl)pyrrolidine-3-carboxamide], the “% Depletion of CCR2 expressing cells” value in test [1] worked out at 56%. In addition, inhibition in test [2] was half-maximal at 29 µM (IC50). Moreover, the Emax at 100 µM in test [2] (read-out: Maximum Response) is 67.9%.

As for `CC(C)N(C)[C@@H]1CC[C@H](N2CC[C@H](Nc3ncnc4ccc(C(F)(F)F)cc34)C2=O)[C@H](NC(=O)[C@H]2CC[C@H](NC(=O)CCCC(=O)NCCCOCCCNC(=O)[C@H]3CC(=O)N(C)[C@@H]3c3cccnc3)CC2)C1` [Example 19, N1-((1R,4r)-4-(((1R,2S,5R)-5-(Isopropyl(methyl)amino)-2-((S)-2-oxo-3-((6-(trifluoromethyl)quinazolin-4-yl)amino)pyrrolidin-1-yl)cyclohexyl)carbamoyl)cyclohexyl)-N5-(3-(3-((2S,3S)-1-methyl-5-oxo-2-(pyridin-3-yl)pyrrolidine-3-carboxamido)propoxy)propyl)glutaramide], the “% Depletion of CCR2 expressing cells” value in test [1] turned out to be 59%. Further, the IC50 in test [2] was at least 100 µM. Further, in test [2] (read-out: Maximum Response), the Emax at 100 µM amounted to 34.2%.

For the compound `CCN1C(=O)C[C@H](C(=O)NCCOCCOCCOCCC(=O)N[C@H]2CC[C@@H](C(=O)N[C@@H]3C[C@H](N(C)C(C)C)CC[C@@H]3N3CC[C@H](Nc4ncnc5ccc(C(F)(F)F)cc45)C3=O)CC2)[C@H]1c1cccnc1` [Example 34, (2S,3S)-1-ethyl-N-(2-(2-(2-(3-((cis-4-(((1R,2S,5R)-5-(isopropyl(methyl)amino)-2-((S)-2-oxo-3-((6-(trifluoromethyl)quinazolin-4-yl)amino)pyrrolidin-1-yl)cyclohexyl)carbamoyl)cyclohexyl)amino)-3-oxopropoxy)ethoxy)ethoxy)ethyl)-5-oxo-2-(pyridin-3-yl)pyrrolidine-3-carboxamide], the “% Depletion of CCR2 expressing cells” value in test [1] is listed as 95%. In test [2], this compound had an IC50 of 28.5 µM. In addition, in test [2] (read-out: Maximum Response), the Emax at 100 µM was 79.2%.

In the case of `CC(C)N(C)[C@@H]1CC[C@H](N2CC[C@H](Nc3ncnc4ccc(C(F)(F)F)cc34)C2=O)[C@H](NC(=O)[C@H]2CC[C@@H](NC(=O)COCCNC(=O)COCCNC(=O)[C@H]3CC(=O)N(C)[C@@H]3c3cccnc3)CC2)C1` [Example 99, (2S,3S)-N-(2-(2-((2-(2-(((1S,4s)-4-(((1R,2S,5R)-5-(Isopropyl(methyl)amino)-2-((S)-2-oxo-3-((6-(trifluoromethyl)quinazolin-4-yl)amino)pyrrolidin-1-yl)cyclohexyl)carbamoyl)cyclohexyl)amino)-2-oxoethoxy)ethyl)amino)-2-oxoethoxy)ethyl)-1-methyl-5-oxo-2-(pyridin-3-yl)pyrrolidine-3-carboxamide], the “% Depletion of CCR2 expressing cells” value in test [1] is 80%. In test [2], this compound registered an IC50 of 33.1 µM. The Emax at 100 µM in test [2] (read-out: Maximum Response) is 71.1%.
